From PubChem BioAssay AID328 (DTP/NCI, 2004)
Several values for one entry are separate records, joined by “and”; a condition that tells them apart may be missing. Equal entries are not always repeated. Inconclusive results and toxic doses are left out.

Test system: BDF1 mice, P388 leukemia ip, median survival T/C
Experiment: NCI In Vivo Anticancer Drug Screen. Data for tumor model P388 Leukemia (intraperitoneal) in B6D2F1 (BDF1) mice
Conditions: endpoint: median survival time, higher = longer survival
Outline: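 In tumour-bearing mice, survival after compound treatment is set against the vehicle group and given as a quotient.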

[1] = dose: 100.0 mg/kg/injection, schedule: Q01DX009 (ip), vehicle: Klucel (hydroxypropylcellulose) (HPC)
[2] = dose: 100.0 mg/kg/injection, schedule: Q04DX003 (ip), vehicle: Klucel (hydroxypropylcellulose) (HPC)
[3] = dose: 200.0 mg/kg/injection, schedule: Q04DX003 (ip), vehicle: Klucel (hydroxypropylcellulose) (HPC)
[4] = dose: 400.0 mg/kg/injection, schedule: Q04DX003 (ip), vehicle: Klucel (hydroxypropylcellulose) (HPC)
[5] = dose: 50.0 mg/kg/injection, schedule: Q01DX009 (ip), vehicle: saline with Tween-80
[6] = dose: 100.0 mg/kg/injection, schedule: Q01DX009 (ip), vehicle: saline with Tween-80
[7] = dose: 100.0 mg/kg/injection, schedule: Q04DX003 (ip), vehicle: saline with Tween-80
[8] = dose: 200.0 mg/kg/injection, schedule: Q04DX003 (ip), vehicle: saline with Tween-80
[9] = dose: 400.0 mg/kg/injection, schedule: Q04DX003 (ip), vehicle: saline with Tween-80
[10] = dose: 25.0 mg/kg/injection, schedule: Q04DX003 (ip), vehicle: saline
[11] = dose: 50.0 mg/kg/injection, schedule: Q04DX003 (ip), vehicle: saline
[12] = dose: 100.0 mg/kg/injection, schedule: Q04DX003 (ip), vehicle: saline
[13] = dose: 25.0 mg/kg/injection, schedule: Q01DX009 (ip), vehicle: Klucel (hydroxypropylcellulose) (HPC)
[14] = dose: 25.0 mg/kg/injection, schedule: Q01DX009 (ip), vehicle: water
[15] = dose: 50.0 mg/kg/injection, schedule: Q01DX009 (ip), vehicle: water
[16] = dose: 200.0 mg/kg/injection, schedule: Q01DX009 (ip), vehicle: saline with Tween-80

COc1ccc(CC2c3cc(OC)c(OC)cc3CC[N+]2(C)C)cc1OC (stereo unspecified)
T/C (dose: 12.5 mg/kg/injection, schedule: Q01DX009 (ip), vehicle: saline sonified): 108 % of control | T/C (dose: 25.0 mg/kg/injection, schedule: Q01DX009 (ip), vehicle: saline sonified): 100 % of control | T/C (dose: 50.0 mg/kg/injection, schedule: Q01DX009 (ip), vehicle: saline sonified): 91 % of control

Cc1ccn(-c2ccccc2)n1
T/C (dose: 100.0 mg/kg/injection, schedule: Q04DX003 (ip), vehicle: other): 104 % of control | T/C (dose: 200.0 mg/kg/injection, schedule: Q04DX003 (ip), vehicle: other): 113 % of control | T/C (dose: 400.0 mg/kg/injection, schedule: Q04DX003 (ip), vehicle: other): 113 % of control

S=C(NNc1ccccc1)NC1CCCCC1
T/C (dose: 100.0 mg/kg/injection, schedule: Q01DX001 (ip), vehicle: Klucel (hydroxypropylcellulose) (HPC)): 100 % of control | T/C [1]: 86 % of control | T/C [2]: 110 % of control | T/C (dose: 200.0 mg/kg/injection, schedule: Q01DX001 (ip), vehicle: Klucel (hydroxypropylcellulose) (HPC)): 100 % of control | T/C (dose: 200.0 mg/kg/injection, schedule: Q01DX009 (ip), vehicle: Klucel (hydroxypropylcellulose) (HPC)): 90 % of control | T/C [3]: 105 % of control | T/C (dose: 400.0 mg/kg/injection, schedule: Q01DX001 (ip), vehicle: Klucel (hydroxypropylcellulose) (HPC)): 104 % of control | T/C (dose: 400.0 mg/kg/injection, schedule: Q01DX009 (ip), vehicle: Klucel (hydroxypropylcellulose) (HPC)): 100 % of control | T/C [4]: 110 % of control

CCSc1ccc2c(cc1=O)[C@@H](NC1OC(CO)C(O)C(O)C1O)CCc1cc(OC)c(OC)c(OC)c1-2 (stereo partly specified)
T/C (dose: 50.0 mg/kg/injection, schedule: Q01DX009 (ip), vehicle: other): 106 % of control and 111 % of control | T/C (dose: 100.0 mg/kg/injection, schedule: Q01DX009 (ip), vehicle: other): 106 % of control and 115 % of control | T/C (dose: 200.0 mg/kg/injection, schedule: Q01DX009 (ip), vehicle: other): 112 % of control

COC(=O)C1CCCCC1C(=O)OC (stereo unspecified)
T/C (dose: 100.0 mg/kg/injection, schedule: Q01DX009 (ip), vehicle: saline): 90 % of control | T/C (dose: 200.0 mg/kg/injection, schedule: Q01DX009 (ip), vehicle: saline): 95 % of control | T/C (dose: 264.0 mg/kg/injection, schedule: Q01DX009 (ip), vehicle: saline with Tween-80): 109 % of control | T/C (dose: 400.0 mg/kg/injection, schedule: Q01DX009 (ip), vehicle: saline with Tween-80): 109 % of control

Cc1cc2nc3c(=O)[nH]c(=O)nc-3n(CC(O)C(O)C(O)CO)c2cc1C (stereo unspecified)
T/C (dose: 12.5 mg/kg/injection, schedule: Q01DX009 (ip), vehicle: saline with Tween-80): 102 % of control | T/C (dose: 25.0 mg/kg/injection, schedule: Q01DX009 (ip), vehicle: saline with Tween-80): 94 % of control | T/C [5]: 107 % of control

O=C(/C=C/c1ccc(OCc2ccccc2)cc1)c1cccs1
T/C [5]: 98 % of control | T/C [6]: 92 % of control

CCCNC(=O)Oc1c(C(C)C)ccc(C)c1Cl
T/C [7]: 100 % of control | T/C [8]: 90 % of control | T/C [9]: 104 % of control

CC(=O)CC(C)=O.CC(=O)CC(C)=O.CC(=O)CC(C)=O.[Ga]
T/C [10]: 100 % of control | T/C [11]: 95 % of control | T/C [12]: 86 % of control

CC(=O)O[C@]1(C(C)=O)CC[C@H]2[C@@H]3C[C@H](F)C4=CC(=O)CC[C@]4(C)[C@H]3CC[C@@]21C
T/C (dose: 12.5 mg/kg/injection, schedule: Q01DX009 (ip), vehicle: Klucel (hydroxypropylcellulose) (HPC)): 109 % of control | T/C [13]: 100 % of control | T/C (dose: 50.0 mg/kg/injection, schedule: Q01DX009 (ip), vehicle: Klucel (hydroxypropylcellulose) (HPC)): 100 % of control | T/C [1]: 87 % of control | T/C (dose: 100.0 mg/kg/injection, schedule: Q04DX003 (ip), vehicle: alcohol): 100 % of control | T/C (dose: 200.0 mg/kg/injection, schedule: Q04DX003 (ip), vehicle: alcohol): 105 % of control | T/C (dose: 400.0 mg/kg/injection, schedule: Q04DX003 (ip), vehicle: alcohol): 110 % of control

CC1(O)C=CC(=O)C=C1
T/C [14]: 157 % of control | T/C [15]: 173 % of control

COc1ccc(NC(=O)Oc2ccccc2Cc2ccccc2)cc1
T/C [2]: 100 % of control | T/C [3]: 95 % of control

CSc1nnc(/C=C/c2ccc3c(c2)OCO3)c(=O)n1N
T/C (dose: 100.0 mg/kg/injection, schedule: Q04DX002 (ip), vehicle: saline with Tween-80): 106 % of control | T/C (dose: 200.0 mg/kg/injection, schedule: Q04DX002 (ip), vehicle: saline with Tween-80): 106 % of control

COc1ccc2[nH]ccc(=O)c2c1
T/C [5]: 102 % of control | T/C [6]: 96 % of control | T/C [16]: 105 % of control

CC1=C(O)C(=O)C(C2=C(O)C(=O)C(C)=C(O)C2=O)=C(O)C1=O
T/C (dose: 0.63 mg/kg/injection, schedule: Q01DX010 (ip), vehicle: saline): 100 % of control | T/C (dose: 1.25 mg/kg/injection, schedule: Q01DX010 (ip), vehicle: saline): 100 % of control | T/C (dose: 62.5 micrograms/kg/injection, schedule: Q01DX001 (ip), vehicle: saline): 118 % of control | T/C (dose: 125.0 micrograms/kg/injection, schedule: Q01DX001 (ip), vehicle: saline): 90 % of control | T/C (dose: 250.0 micrograms/kg/injection, schedule: Q01DX001 (ip), vehicle: saline): 100 % of control | T/C (dose: 500.0 micrograms/kg/injection, schedule: Q01DX001 (ip), vehicle: saline): 100 % of control | T/C (dose: 1000.0 micrograms/kg/injection, schedule: Q01DX001 (ip), vehicle: saline): 100 % of control

O=[N+]([O-])c1ccc(/C=C/c2ccccn2)s1
T/C [2]: 100 % of control | T/C [3]: 100 % of control | T/C [4]: 100 % of control

O=C(NCc1cnccn1)Nc1ccccc1
T/C [10]: 104 % of control | T/C [11]: 103 % of control | T/C [12]: 87 % of control | T/C (dose: 200.0 mg/kg/injection, schedule: Q04DX003 (ip), vehicle: saline): 100 % of control | T/C (dose: 400.0 mg/kg/injection, schedule: Q04DX003 (ip), vehicle: saline): 100 % of control

O=C(c1c(F)c(F)c(F)c(F)c1F)N1CC1
T/C [14]: 106 % of control | T/C (dose: 25.0 mg/kg/injection, schedule: Q04DX003 (ip), vehicle: water): 104 % of control | T/C [15]: 111 % of control | T/C (dose: 50.0 mg/kg/injection, schedule: Q04DX003 (ip), vehicle: water): 91 % of control | T/C (dose: 100.0 mg/kg/injection, schedule: Q01DX009 (ip), vehicle: water): 111 % of control | T/C (dose: 100.0 mg/kg/injection, schedule: Q04DX003 (ip), vehicle: water): 106 % of control | T/C (dose: 200.0 mg/kg/injection, schedule: Q01DX009 (ip), vehicle: water): 97 % of control | T/C (dose: 200.0 mg/kg/injection, schedule: Q04DX003 (ip), vehicle: water): 106 % of control | T/C (dose: 400.0 mg/kg/injection, schedule: Q01DX009 (ip), vehicle: water): 100 % of control | T/C (dose: 400.0 mg/kg/injection, schedule: Q04DX003 (ip), vehicle: water): 100 % of control

Cc1ccc(-c2nc3ccccc3c(=O)n2/N=C/c2cccc3ccccc23)cc1
T/C [5]: 90 % of control | T/C [6]: 89 % of control

N#CCNC(=O)c1ccccc1
T/C (dose: 6.0 mg/kg/injection, schedule: Q01DX009 (ip), vehicle: Klucel (hydroxypropylcellulose) (HPC)): 88 % of control | T/C (dose: 12.0 mg/kg/injection, schedule: Q01DX009 (ip), vehicle: Klucel (hydroxypropylcellulose) (HPC)): 88 % of control | T/C [13]: 91 % of control | T/C (dose: 25.0 mg/kg/injection, schedule: Q04DX003 (ip), vehicle: Klucel (hydroxypropylcellulose) (HPC)): 110 % of control | T/C (dose: 50.0 mg/kg/injection, schedule: Q04DX003 (ip), vehicle: Klucel (hydroxypropylcellulose) (HPC)): 110 % of control | T/C [2]: 90 % of control

Clc1cc(C(Cl)(Cl)Cl)c(Cl)cc1C(Cl)(Cl)Cl
T/C [7]: 100 % of control | T/C [8]: 105 % of control | T/C [9]: 110 % of control

CC(=O)N1C(=O)N(Cl)C(=O)C1(c1ccc(Cl)cc1)c1ccc(Cl)cc1
T/C (dose: 60.0 mg/kg/injection, schedule: Q01DX009 (ip), vehicle: saline with Tween-80): 116 % of control | T/C [6]: 91 % of control | T/C [7]: 113 % of control | T/C [16]: 113 % of control | T/C [8]: 109 % of control | T/C [9]: 122 % of control
